Data published in ChEMBL document CHEMBL1201862, “PubChem BioAssay data set” (2004).
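96-well plates; 48 h exposure; 5 concentrations. Endpoints by linear interpolation between flanking doses. Not reached: highest tested concentration assigned. GI50 = concentration required for 50% inhibition of growth.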 Active and inactive are the calls of the source. Cut-off read from the data, not from the text of the source: active = GI50 up to about 1.1 µM and inactive = higher.

Experiments:
Assay in all cases: inhibition of tumour cell growth, NCI panel, 48 h
LOX IMVI = tested on: LOX IMVI
NCI/ADR-RES = tested on: NCI/ADR-RES
SK-OV-3 = tested on: SK-OV-3
T47D = tested on: T47D
DU-145 = tested on: DU-145
NCI-H226 = tested on: NCI-H226
SK-MEL-2 = tested on: SK-MEL-2
SNB-19 = tested on: SNB-19
EKVX = tested on: EKVX
RPMI-8226 = tested on: RPMI-8226
HOP-62 = tested on: HOP-62
NCI-H522 = tested on: NCI-H522
SN12C = tested on: SN12C
MDA-MB-231 = tested on: MDA-MB-231
SK-MEL-5 = tested on: SK-MEL-5
786-0 = tested on: 786-0
HCC 2998 = tested on: HCC 2998
NCI-H460 = tested on: NCI-H460

SMILES	GI50 (LOX IMVI)	GI50 (NCI/ADR-RES)	GI50 (SK-OV-3)	GI50 (T47D)	GI50 (DU-145)	GI50 (NCI-H226)	GI50 (SK-MEL-2)	GI50 (SNB-19)	GI50 (EKVX)	GI50 (RPMI-8226)	GI50 (HOP-62)	GI50 (NCI-H522)	GI50 (SN12C)	GI50 (MDA-MB-231)	GI50 (SK-MEL-5)	GI50 (786-0)	GI50 (HCC 2998)	GI50 (NCI-H460)
OCC1CCCC(n2cnc3c(S)ncnc32)O1 (stereo not given)	> 100 µM (inactive)	> 100 µM (inactive)	> 100 µM (inactive)	> 100 µM (inactive)	> 100 µM (inactive)	> 100 µM (inactive)	> 100 µM (inactive)	> 100 µM (inactive)	> 100 µM (inactive)	> 100 µM (inactive)	> 100 µM (inactive)	> 100 µM (inactive)	> 100 µM (inactive)	> 100 µM (inactive)	> 100 µM (inactive)	> 100 µM (inactive)	> 100 µM (inactive)	> 100 µM (inactive)
O=C(CSCC(=O)N/N=C/c1cccc(OCc2ccccc2)c1)N/N=C/c1cccc(OCc2ccccc2)c1	36.1 µM (inactive)	44.6 µM (inactive)	> 100 µM (inactive)	38.9 µM (inactive)	> 100 µM (inactive)	> 74.5 µM (inactive)	41.3 µM (inactive)	57.5 µM (inactive)	69.3 µM (inactive)	8.91 µM (inactive)	> 100 µM (inactive)	> 47.6 µM (inactive)	35.5 µM (inactive)	> 100 µM (inactive)	31.3 µM (inactive)	54.2 µM (inactive)	30.6 µM (inactive)	34.4 µM (inactive)
c1ccc(CCN2CCOCC2)nc1	> 100 µM (inactive)	> 100 µM (inactive)	> 100 µM (inactive)	> 100 µM (inactive)	> 100 µM (inactive)	> 100 µM (inactive)	> 100 µM (inactive)	> 100 µM (inactive)	> 100 µM (inactive)	> 100 µM (inactive)	> 100 µM (inactive)	> 100 µM (inactive)	> 100 µM (inactive)	> 100 µM (inactive)	> 100 µM (inactive)	> 100 µM (inactive)	> 100 µM (inactive)	> 100 µM (inactive)
OC(COc1ccccc1)CN1CCCCC1 (stereo not given)	> 100 µM (inactive)	> 100 µM (inactive)	> 100 µM (inactive)	> 100 µM (inactive)	> 100 µM (inactive)	> 100 µM (inactive)	> 100 µM (inactive)	> 100 µM (inactive)	63.4 µM (inactive)	> 100 µM (inactive)	> 100 µM (inactive)	> 100 µM (inactive)	> 100 µM (inactive)	> 100 µM (inactive)	> 100 µM (inactive)	> 100 µM (inactive)	> 100 µM (inactive)	> 100 µM (inactive)
C=C1C(=O)OC2CC(C)C(/C=C/C(C)=O)=CCC12 (stereo not given)	> 100 µM (inactive)	> 100 µM (inactive)	> 100 µM (inactive)	> 100 µM (inactive)	> 100 µM (inactive)	> 100 µM (inactive)	> 100 µM (inactive)	> 100 µM (inactive)	> 100 µM (inactive)	86.1 µM (inactive)	> 100 µM (inactive)	29.8 µM (inactive)	> 100 µM (inactive)	> 100 µM (inactive)	71.8 µM (inactive)	26.4 µM (inactive)	> 100 µM (inactive)	> 100 µM (inactive)
CC(C)(C)c1cc2c(c(C(C)(C)C)c1O)CC(=O)O2	38.5 µM (inactive)	21.1 µM (inactive)	48.8 µM (inactive)	23.2 µM (inactive)	47.5 µM (inactive)	30.8 µM (inactive)	21.5 µM (inactive)	34.7 µM (inactive)	30.8 µM (inactive)	23.6 µM (inactive)	30.3 µM (inactive)	46 µM (inactive)	34.8 µM (inactive)	24.5 µM (inactive)	17.1 µM (inactive)	26.5 µM (inactive)	35 µM (inactive)	37.7 µM (inactive)
Cc1ccc2nc(/C=N/c3ccc(Cl)cc3)cc(C)c2c1	0.329 µM (active)	3.44 µM (inactive)	16.8 µM (inactive)	2.54 µM (inactive)	0.659 µM (active)	18.4 µM (inactive)	25.8 µM (inactive)	27.6 µM (inactive)	14.4 µM (inactive)	1.24 µM (inactive)	2.26 µM (inactive)	2.65 µM (inactive)	5.21 µM (inactive)	4.94 µM (inactive)	2.29 µM (inactive)	10.6 µM (inactive)	0.574 µM (active)	0.729 µM (active)
CC(C)(/N=N/C(C)(C)C(=N)N)C(=N)N	> 100 µM (inactive)	> 100 µM (inactive)	> 100 µM (inactive)	> 100 µM (inactive)	> 100 µM (inactive)	> 100 µM (inactive)	> 100 µM (inactive)	> 100 µM (inactive)	> 100 µM (inactive)	> 100 µM (inactive)	> 100 µM (inactive)	> 100 µM (inactive)	> 100 µM (inactive)	> 100 µM (inactive)	> 100 µM (inactive)	> 100 µM (inactive)	> 100 µM (inactive)	> 100 µM (inactive)
CC(=O)NNC1=NN(C(C)=O)C2(S1)C(=O)Nc1ccccc12 (stereo not given)	> 100 µM (inactive)	> 100 µM (inactive)	> 100 µM (inactive)	> 100 µM (inactive)	> 100 µM (inactive)	> 100 µM (inactive)	> 100 µM (inactive)	> 100 µM (inactive)	> 100 µM (inactive)	> 100 µM (inactive)	> 100 µM (inactive)	> 100 µM (inactive)	> 100 µM (inactive)	> 100 µM (inactive)	> 100 µM (inactive)	> 100 µM (inactive)	> 100 µM (inactive)	> 100 µM (inactive)
OC(CCN1CCN(CCOC(c2ccc(F)cc2)c2ccc(F)cc2)CC1)c1ccccc1 (stereo not given)	14.6 µM (inactive)	13.3 µM (inactive)	16.3 µM (inactive)	12.3 µM (inactive)	17.3 µM (inactive)	15 µM (inactive)	15.3 µM (inactive)	16.9 µM (inactive)	12.9 µM (inactive)	15.7 µM (inactive)	18 µM (inactive)	14.4 µM (inactive)	15.2 µM (inactive)	14.6 µM (inactive)	7.6 µM (inactive)	12.9 µM (inactive)	3.52 µM (inactive)	16.7 µM (inactive)
CCOC(=O)/C=C(/C(=O)OCC)n1cc(C)c(=O)[nH]c1=O	2.19 µM (inactive)	10.9 µM (inactive)	18.3 µM (inactive)	3.69 µM (inactive)	16.1 µM (inactive)	5.46 µM (inactive)	7 µM (inactive)	17.3 µM (inactive)	3.33 µM (inactive)	2.47 µM (inactive)	18.9 µM (inactive)	0.792 µM (active)	5.06 µM (inactive)	4.51 µM (inactive)	8.81 µM (inactive)	2.49 µM (inactive)	5.71 µM (inactive)	14.6 µM (inactive)
COc1ccc2c(c1)c1c(n2CCN(C)C)-c2cccc(OC)c2CC1	13.4 µM (inactive)	17.5 µM (inactive)	18.2 µM (inactive)	10 µM (inactive)	17.7 µM (inactive)	4.49 µM (inactive)	15.6 µM (inactive)	18.8 µM (inactive)	14.4 µM (inactive)	2.05 µM (inactive)	13.8 µM (inactive)	3.88 µM (inactive)	13.7 µM (inactive)	13.7 µM (inactive)	10.4 µM (inactive)	22.3 µM (inactive)	11.6 µM (inactive)	14.6 µM (inactive)
O=C(Nc1ccn(C2CCC(COC(c3ccccc3)(c3ccccc3)c3ccccc3)O2)c(=O)n1)c1ccccc1 (stereo not given)	2.72 µM (inactive)	2.72 µM (inactive)	9.44 µM (inactive)	7.46 µM (inactive)	7.91 µM (inactive)	6.9 µM (inactive)	2.48 µM (inactive)	5.66 µM (inactive)	5.11 µM (inactive)	2.31 µM (inactive)	10.7 µM (inactive)	5.32 µM (inactive)	1.88 µM (inactive)	5.87 µM (inactive)	2.78 µM (inactive)	2.64 µM (inactive)	11.5 µM (inactive)	2.92 µM (inactive)
Cc1ccc(NC(=O)c2ccc(OP(=O)(O)Nc3ccc(C)cc3)cc2)cc1	> 100 µM (inactive)	> 100 µM (inactive)	> 100 µM (inactive)	> 100 µM (inactive)	> 100 µM (inactive)	> 100 µM (inactive)	12 µM (inactive)	> 100 µM (inactive)	> 100 µM (inactive)	> 100 µM (inactive)	> 100 µM (inactive)	78.3 µM (inactive)	> 100 µM (inactive)	> 100 µM (inactive)	> 100 µM (inactive)	> 100 µM (inactive)	> 100 µM (inactive)	> 100 µM (inactive)
CCCCCNC(=O)c1cc2cc(CCl)ccc2oc1=O	17.3 µM (inactive)	16.4 µM (inactive)	5.19 µM (inactive)	1.3 µM (inactive)	2.26 µM (inactive)	14.2 µM (inactive)	3.1 µM (inactive)	15.9 µM (inactive)	4.41 µM (inactive)	10 µM (inactive)	5.69 µM (inactive)	3.24 µM (inactive)	1.72 µM (inactive)	1.97 µM (inactive)	16.6 µM (inactive)	1.34 µM (inactive)	1.77 µM (inactive)	1.61 µM (inactive)
